{"source": "patent US10799475B2", "about": "“Substituted phenyl aziridine precursor analogs for inhibiting androgen-independent prostate cancer cell growth” (Northwestern University, priority 2007, dated 2020)", "key": {"AR [1]": {"target": "T1, AR (Homo sapiens, UniProt P10275, T878A)", "T1 construct": "epithelial cells expressing endogenous AR, LNCaP prostate cells were studied; endogenous in cells; host or cells: LNCaP", "T1 sequence (P10275 1-920 T878A)": "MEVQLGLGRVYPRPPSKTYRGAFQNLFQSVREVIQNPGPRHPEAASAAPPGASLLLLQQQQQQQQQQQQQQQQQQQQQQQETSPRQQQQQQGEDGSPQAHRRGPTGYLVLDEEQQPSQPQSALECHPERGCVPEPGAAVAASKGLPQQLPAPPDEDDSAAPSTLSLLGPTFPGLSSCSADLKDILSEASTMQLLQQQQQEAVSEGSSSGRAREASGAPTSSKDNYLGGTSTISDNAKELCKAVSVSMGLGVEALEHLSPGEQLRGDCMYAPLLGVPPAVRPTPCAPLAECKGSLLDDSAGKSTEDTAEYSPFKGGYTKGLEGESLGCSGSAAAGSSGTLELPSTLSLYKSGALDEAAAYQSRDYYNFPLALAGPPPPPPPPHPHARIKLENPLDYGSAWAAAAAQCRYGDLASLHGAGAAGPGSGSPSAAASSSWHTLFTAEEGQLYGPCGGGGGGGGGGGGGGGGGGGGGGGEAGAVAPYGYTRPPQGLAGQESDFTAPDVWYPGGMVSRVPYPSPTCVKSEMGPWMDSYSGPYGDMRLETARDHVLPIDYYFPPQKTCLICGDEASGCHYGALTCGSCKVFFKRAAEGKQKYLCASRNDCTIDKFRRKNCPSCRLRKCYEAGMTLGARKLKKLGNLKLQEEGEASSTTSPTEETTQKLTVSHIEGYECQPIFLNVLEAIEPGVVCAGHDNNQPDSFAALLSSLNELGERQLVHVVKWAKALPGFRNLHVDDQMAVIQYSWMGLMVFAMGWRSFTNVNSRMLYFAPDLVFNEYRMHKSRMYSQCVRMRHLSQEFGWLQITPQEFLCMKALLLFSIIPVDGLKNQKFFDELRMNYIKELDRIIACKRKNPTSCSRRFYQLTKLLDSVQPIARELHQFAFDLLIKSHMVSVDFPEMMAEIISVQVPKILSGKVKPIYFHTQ", "assay_type": "cell-based", "conditions": "LNCaP cells, CpdA 2×10^−6 M, 24 hours, basal and DHT 10^−7 M"}, "DU145 cells": {"test_system": "DU145 cells", "assay_type": "cell-based, human"}, "C8161 cells": {"test_system": "C8161 cells", "assay_type": "cell-based, human", "conditions": "CpdA 5×10^−6 M, 72 hours"}, "LNCaP-AR^low cells": {"test_system": "LNCaP-AR^low cells", "assay_type": "cell-based, human", "conditions": "CpdA 2×10^−6 M, 1-10 days"}, "PWR-1E cells": {"test_system": "PWR-1E cells", "assay_type": "cell-based", "conditions": "tested range of concentrations"}, "B16F10 cells": {"test_system": "B16F10 cells", "assay_type": "cell-based, mouse", "conditions": "CpdA 5×10^−6 M, 72 hours"}, "PC3 cells": {"test_system": "PC3 cells", "assay_type": "cell-based, human"}, "AR [2]": {"target": "T1, AR", "assay": "EMSA of AR-DNA binding in LNCaP cells", "assay_type": "cell-based"}, "GR [3]": {"target": "T2, GR (Homo sapiens, UniProt P04150)", "T2 sequence (P04150 1-777)": "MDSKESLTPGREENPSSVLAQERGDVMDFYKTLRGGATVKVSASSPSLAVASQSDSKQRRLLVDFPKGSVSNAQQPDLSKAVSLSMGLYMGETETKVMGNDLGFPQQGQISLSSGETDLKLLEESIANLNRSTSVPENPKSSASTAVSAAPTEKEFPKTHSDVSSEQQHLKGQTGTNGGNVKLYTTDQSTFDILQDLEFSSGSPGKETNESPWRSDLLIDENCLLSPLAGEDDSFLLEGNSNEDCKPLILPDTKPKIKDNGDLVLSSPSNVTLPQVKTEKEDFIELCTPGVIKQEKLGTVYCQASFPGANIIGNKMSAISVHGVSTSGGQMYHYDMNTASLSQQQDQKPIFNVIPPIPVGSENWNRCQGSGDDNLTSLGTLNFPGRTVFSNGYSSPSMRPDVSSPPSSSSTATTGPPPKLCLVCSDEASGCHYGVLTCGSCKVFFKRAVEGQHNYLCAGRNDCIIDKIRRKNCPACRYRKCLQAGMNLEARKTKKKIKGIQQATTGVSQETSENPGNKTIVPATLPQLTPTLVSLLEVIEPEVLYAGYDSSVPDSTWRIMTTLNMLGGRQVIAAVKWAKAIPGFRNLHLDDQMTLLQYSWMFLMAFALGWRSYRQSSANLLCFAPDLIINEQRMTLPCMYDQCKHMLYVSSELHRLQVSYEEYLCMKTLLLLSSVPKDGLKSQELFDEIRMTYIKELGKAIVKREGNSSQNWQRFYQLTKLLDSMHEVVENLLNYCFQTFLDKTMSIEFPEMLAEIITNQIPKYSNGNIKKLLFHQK", "assay": "TAT.Luc dual Luciferase assay of GR transactivation in PC cells", "assay_type": "cell-based", "set-up": "expressed in transfected cells; host or cells: LNCaP-GR (lentiviral GR); also DU145 and PC3 (endogenous GR)", "conditions": "24 hours", "description": "FIG. 3. Effect of CpdA on GR function in PC cells. A. & B. CpdA-activated GR nuclear translocation. Cells were treated with CpdA, glucocorticoid FA, or anti-glucocorticoid RU486. Panel A (immunofluorescence). Panel B (Western blotting of nuclear protein using HDAC-1 and β-tubulin as protein loading controls). C. CpdA decreased GR-DNA binding (EMSA, nuclear proteins). LNCaP-GR cells were treated with 0.01% DMSO (control), Dex (10^−7 M) or CpdA (10^−5 M) for 4 hours. D. & E. CpdA effect on GR function. PC cells were transiently transfected with TAT.Luc (D) or κB.Luc (E), and control Renilla Luciferase reporters, treated with Dex (10^−6 M) or CpdA (10^−5 M) for 24 hours. For activation of NF-κB, cells were co-transfected with CMV.IKKβ plasmid (in panel E). Reporter activity was assessed by dual Luciferase assay and presented as factor of change.\nFIG. 4. CpdA effect on GR function. A. & B. PC cells were transiently transfected with TAT.Luc (A) or κB.Luc (B), and control Renilla Luciferase reporters. Cells were treated with Dex (10^−6 M) and CpdA (10^−5 M) for 24 hours. For activation of NF-κB (as shown in panel B), cells were co-transfected with CMV.IKKβ plasmid. Reporter activity was assessed by dual Luciferase assay and presented as factor of change. […]"}, "LNCaP-GR cells": {"test_system": "LNCaP-GR cells", "assay_type": "cell-based, human", "conditions": "monolayer and colony-forming assay, data not shown"}, "GR [4]": {"target": "T2, GR", "assay": "GR nuclear translocation, Western blotting and immunofluorescence in LNCaP-GR cells", "assay_type": "cell-based", "set-up": "expressed in transfected cells; host or cells: LNCaP-GR (lentiviral GR); also DU145 and PC3 (endogenous GR)"}, "GR [5]": {"target": "T2, GR", "conditions": "cited from earlier work"}, "PC3 and LNCaP-GR cells": {"test_system": "PC3 and LNCaP-GR cells", "assay_type": "cell-based, human"}, "GR [6]": {"target": "T2, GR", "assay": "EMSA of GR-DNA binding in LNCaP-GR cells", "assay_type": "cell-based", "set-up": "expressed in transfected cells; host or cells: LNCaP-GR (lentiviral GR); also DU145 and PC3 (endogenous GR)", "conditions": "CpdA 10^−5 M, 4 hours"}, "AR [7]": {"target": "T3, AR (Homo sapiens, UniProt P10275)", "T3 sequence (P10275 1-920)": "T1 sequence (P10275 1-920 T878A) with A878T", "conditions": "cited from earlier work"}, "PC cells": {"test_system": "PC cells", "assay_type": "cell-based, human", "conditions": "72 hours"}, "[8]": {"conditions": "rodents, proposed concentration 12.5 mg/kg; cited from earlier work"}, "AR [9]": {"target": "T1, AR", "assay": "AR nuclear translocation, Western blot and immunofluorescence in LNCaP cells", "assay_type": "cell-based", "conditions": "16 hours"}, "A375 cells": {"test_system": "A375 cells", "assay_type": "cell-based, human", "conditions": "CpdA 5×10^−6 M, 72 hours"}, "DU145 and PC3 cells": {"test_system": "DU145 and PC3 cells", "assay": "Apoptosis by PARP cleavage, Western blotting", "assay_type": "cell-based, human"}, "NF-κB": {"test_system": "NF-κB", "assay": "κB.Luc dual Luciferase assay of GR transrepression in PC cells", "assay_type": "cell-based, human", "conditions": "all studied prostate cells, basal and IKKβ-induced, CpdA 10^−5 M, 24 hours"}, "LNCaP cells": {"test_system": "LNCaP cells", "assay_type": "cell-based, human", "conditions": "5 μM CpdA, 1-12 days"}, "[10]": {"conditions": "CpdA 10^−9 M−2×10^−5 M, 72 hours"}}, "note": "Where a chain is given by its changes, count along the chain named.", "data": [{"compound": "CNCC(Cl)c1ccc(OC(C)=O)cc1.Cl", "note": "(centres unmarked) [CpdA, 2-(4-acetoxyphenyl)-2-chloro-N-methyl-ethylammonium chloride]", "values": [{"measurement": "AR transcriptional activity", "setting": "AR [1]", "result": "inhibited basal and DHT-induced transcriptional activity of AR"}, {"measurement": "growth inhibition vs vehicle-treated control", "setting": "DU145 cells", "result": "60-65%"}, {"measurement": "growth inhibition, concentration-dependent", "setting": "DU145 cells; [10]", "result": "strongly inhibit"}, {"measurement": "growth inhibition", "setting": "C8161 cells", "result": "strongly inhibited growth"}, {"measurement": "growth inhibition", "setting": "LNCaP-AR^low cells", "result": "resistant"}, {"measurement": "growth inhibition", "setting": "PWR-1E cells", "result": "rather resistant"}, {"measurement": "growth inhibition", "setting": "B16F10 cells", "result": "strongly inhibited growth"}, {"measurement": "growth inhibition vs vehicle-treated control", "setting": "PC3 cells", "result": "65-85%"}, {"measurement": "growth inhibition, concentration-dependent", "setting": "PC3 cells; [10]", "result": "strongly inhibit"}, {"measurement": "AR DNA binding", "setting": "AR [2]", "result": "constitutively inhibit AR DNA binding and especially DHT-induced AR DNA binding"}, {"measurement": "GR transcriptional activation (TAT.Luc)", "setting": "GR [3]; LNCaP-GR, DU145 and PC3 cells, CpdA 10^−5 M", "result": "inhibit GR transcriptional activation"}, {"measurement": "sensitivity to growth inhibition vs control cells infected with empty virus", "setting": "LNCaP-GR cells", "result": "significantly more sensitive"}, {"measurement": "GR nuclear translocation", "setting": "GR [4]", "result": "induce GR nuclear import"}, {"measurement": "competition for GR binding", "setting": "GR [5]", "result": "competes with glucocorticoids for GR binding"}, {"measurement": "sensitivity to CpdA after GR blockage", "setting": "PC3 and LNCaP-GR cells", "result": "drastic loss of sensitivity"}, {"measurement": "GR-DNA binding", "setting": "GR [6]", "result": "constitutively inhibit glucocorticoid-induced GR-DNA binding"}, {"measurement": "competition for AR binding", "setting": "AR [7]", "result": "does not compete with androgen for AR binding"}, {"measurement": "concentration range of strong cytostatic effect", "setting": "PC cells", "result": "2−10 μM"}, {"measurement": "anti-inflammatory effect", "setting": "[8]", "result": "strong anti-inflammatory effect"}, {"measurement": "AR nuclear translocation", "setting": "AR [9]", "result": "induce AR nuclear translocation"}, {"measurement": "growth inhibition", "setting": "A375 cells", "result": "strongly inhibited growth"}, {"measurement": "treatment time after which apoptosis is induced (PARP cleavage)", "setting": "DU145 and PC3 cells; CpdA 2×10^−6 M", "result": "6 to 8", "unit": "days"}, {"measurement": "treatment time after which cells are sensitized to TNFα-induced apoptosis", "setting": "DU145 and PC3 cells; CpdA then TNFα 10 ng/ml for 16 hours", "result": 2, "unit": "days"}, {"measurement": "NF-κB function (κB.Luc)", "setting": "NF-κB", "result": "strongly inhibited"}, {"measurement": "growth inhibition", "setting": "LNCaP cells", "result": "strong growth inhibition"}]}, {"compound": "CC1(C)O[C@@H]2C[C@H]3[C@@H]4C[C@H](F)C5=CC(=O)C=C[C@]5(C)[C@@]4(F)[C@@H](O)C[C@]3(C)[C@]2(C(=O)CO)O1", "note": "[FA, fluocinolone acetonide, reference compound]", "values": [{"measurement": "induction of TAT.Luc reporter activity", "setting": "GR [3]; PC cells", "result": "10-15 folds"}]}]}
